# Test results published in article PMC8333425, “Discovery of a dual Ras and ARF6 inhibitor from a GPCR endocytosis screen” (Nature Communications, 2021).
# Where “and” joins values, the source holds several entries; their conditions need not be identical. Identical values can stand only once.
# Experiments:
# [1] = system: Ras; assay: GST-Raf1-RBD pull-down of AT1R-mediated Ras activation; type: cell-based, human; conditions: for Ras-GTP over total Ras, GST-Raf1-RBD pull-down, AT1R: Comp 21 50 μM, individual experiments
# Excerpt: (§1) Since 21 inhibited both ERK1/2 and Akt activation by GPCRs and EGFR, we looked at a common target involved in both pathways. The small G protein Ras is an upstream regulator of both Ras-RAF-MEK-ERK and PI3K/Akt signaling pathways[35],[36]. Therefore, we explored 21’s ability to inhibit Ras activity using GST-Raf1-Ras-binding domain (RBD) in a pull-down assay. A reduction of 60% in GTP-bound Ras was noticed in pulled-down from cells treated with 21 and stimulated with either AT1R or EGFR, as compared to vehicle-treated cells (Fig. 4a, b). Complementary to this in vitro assay, we generated a Ras BRET assay, using the Raf-Ras binding domain tagged with RlucII (Raf1-RBD-RlucII) and the rGFP at the PM (rGFP-CAAX) (Supplementary Fig. 3c), to assess 21’s effects on Ras activation kinetics. […] Overexpression of either the active form of Ras (G12V) or SOS1 anchored at the PM (SOS-CAAX) produced a robust basal BRET signal that was no longer modulated by receptor activation (Supplementary Fig. 3d). […] 21’s potency to inhibit ARF6 and Ras is also consistent with its relative efficacy for inhibiting AT1R internalization and MAPK, respectively, when used at 50 μM (e.g., around 7 and 70 times the respective IC50s) (Figs. 2e and 3a). We also assessed if 21 was acting as a pan small G protein inhibitor by testing its effect on Rho and Rac/Cdc42. […] To assess Rac/Cdc42 activity, we generated a Rac/Cdc42 BRET sensor that consisted of the PAK-CRIB domain fused to RlucII (PAK-CRIB-RlucII) and the rGFP-CAAX (Supplementary Fig. 3e). PAK-CRIB, which binds to active Rac/Cdc42, was recruited to the PM upon AngII stimulation of cells and generated a robust BRET signal, which was blocked by the overexpression of the DN Rac1-T17N. Overexpression of the constitutively active Rac1-Q61L increased the basal BRET, which was no longer modulated by AT1R stimulation (Supplementary Fig. 3f).
# Activation of ARF1, ARF6, Ras, and Rho were assessed by using GST pull-down assays. […] ImageLab 5.2 software was used to quantify the digital blots as fold of the amount of pulled down protein over total protein. […]
# [2] = system: Ras; assay: Ras BRET sensor (Raf1-RBD-RlucII / rGFP-CAAX), AT1R-mediated; type: cell-based, human
# Excerpt: as §1
# HEK293SL cells were seeded at a density of 7.5 × 10^5 cells per 100-mm dish and 24 h later, transiently transfected as such. For receptor internalization experiments, cells were transfected with 0.12 μg AT1R-RlucII, B2R-RlucII, or β2AR-RlucII and 0.48 μg of either rGFP-CAAX (to assess removal from the PM) or rGFP-FYVE (to assess accumulation in the endosomes). For β-arrestin recruitment assays, cells were transfected with 0.48 μg of receptor-YFP along with 0.12 μg of β-arrestin-RlucII. For β-arrestin/AP-2 binding experiments, cells were transfected with 1 μg Flag-AT1R, 1 μg β2-Adaptin-YFP, and 0.12 μg β-arrestin2-RlucII. For G protein activation, cells were transfected with 3 μg of sp-Flag-AT1R along with either 4.5 μg of the Gαq-polycistronic BRET sensor or 0.24 μg of the Gαi3-RlucII and 0.6 μg of GFP10-Gγ2 and Gβ1 sensors or 0.12 μg PKN-RBD-RlucII and 0.48 μg of rGFP-CAAX. For PKC activation, cells were transfected with 3 μg of sp-Flag-AT1R and 0.18 μg of the PKC sensor. For GTPase activation experiments, cells were transfected with 1 μg Flag-AT1R, 0.48 μg of rGFP-CAAX, and either 0.12 μg of GGA3-PBD-RlucII, PAK-CRIB-RlucII or Raf-RBD-RlucII. For biosensor validation experiments, cells were additionally transfected with 500 ng Flag-K-Ras-WT, Flag-K-Ras-G12V, Flag-K-Ras-SOS-CAAX, HA-ARF6-WT, HA-ARF6-T27N, Myc-Rac1-WT, Myc-Rac1-Q61L or Myc-Rac1-T17N. For PI3K/Akt activation experiments, cells were transfected with 0.48 μg of rGFP-CAAX and 0.12 μg of Akt (PH)-RlucII. After 18 h of transfection, the media was replaced and cells were divided for subsequent experiments. Cells were detached and seeded onto poly-L-ornithine-coated 96-well flat white bottom plates (BrandTech Scientific) at a density of 2.5 × 10^4 cells per well in media. The next day, cells were washed once with Tyrode’s buffer (140 mM NaCl, 2.7 mM KCl, 1 mM CaCl2, 12 mM NaHCO3, 5.6 mM D-glucose, 0.5 mM MgCl2, 0.37 mM NaH2PO4, 25 mM HEPES, pH 7.4) and left in Tyrode’s buffer. […]
compound,measurement,setting,value
CC(C)C(=O)N1CCN(c2ccc(NC(=O)c3cc4ccccc4o3)cc2Cl)CC1 [Compound 21],"reduction in GTP-bound Ras, AT1R-stimulated cells (pull-down)","[1]; 50 μM, compared to vehicle-treated cells",60%
same,"Ras-GTP over total Ras, GST-Raf1-RBD pull-down, AT1R",[1]; AngII,0.2615 and 0.2571 and 0.1009 and 0.2909 and 0.08351
same,"Ras-GTP over total Ras, GST-Raf1-RBD pull-down, AT1R",[1]; Ctrl (no AngII),0.2526 and 0.08678 and 0.1353 and 0.1074 and 0.09399
same,decrease of Ras activation following AT1R stimulation (Ras BRET assay),[2]; 50 μM,50–70%
same,IC50,"[2]; AT1R, dose-response",0.7 µM
same,"Ras BRET sensor signal (Fig.4c), single experiments","[2]; Comp 21 50 μM, Time 0 min",0
same,Ras MEAN (Fig.4d),[2]; Log [Comp 21] (M) -4,16.3196
same,Ras MEAN (Fig.4d),[2]; Log [Comp21] (M) -4.3,30.5907
same,Ras MEAN (Fig.4d),[2]; Log [Comp21] (M) -5,29.6351
same,Ras MEAN (Fig.4d),[2]; Log [Comp21] (M) -5.3,36.1989
same,Ras MEAN (Fig.4d),[2]; Log [Comp 21] (M) -6,54.1758
same,Ras MEAN (Fig.4d),[2]; Log [Comp21] (M) -6.3,74.1367
same,Ras MEAN (Fig.4d),[2]; Log [Comp 21] (M) -7,95.616
